Assay results taken from US20240309016A1, “MACROCYCLIC HETEROCYCLE COMPOUNDS AND USE THEREOF” (TAKEDA PHARMACEUTICAL COMPANY LIMITED, priority 2023, published 2024).
Structures can show the parent of a compound that is named as a salt. Where two headings read alike, the source gives them in different places.

Columns and labels:
human OX2 receptor [1] = target: T1, human OX2 receptor (Homo sapiens, UniProt O43614); test: Measurement of orexin type 2 receptor agonist activity (Experimental Example 3; calcium 5 dye, FLIPR Tetra); assay type: cell-based; conditions: compound at 1 μM; CHO cells expressing human OX2 receptor; DMSO = 0%, 10 nM orexin A (human) = 100%
T1 construct: expressed in transfected cells
T1 sequence (O43614 1-444): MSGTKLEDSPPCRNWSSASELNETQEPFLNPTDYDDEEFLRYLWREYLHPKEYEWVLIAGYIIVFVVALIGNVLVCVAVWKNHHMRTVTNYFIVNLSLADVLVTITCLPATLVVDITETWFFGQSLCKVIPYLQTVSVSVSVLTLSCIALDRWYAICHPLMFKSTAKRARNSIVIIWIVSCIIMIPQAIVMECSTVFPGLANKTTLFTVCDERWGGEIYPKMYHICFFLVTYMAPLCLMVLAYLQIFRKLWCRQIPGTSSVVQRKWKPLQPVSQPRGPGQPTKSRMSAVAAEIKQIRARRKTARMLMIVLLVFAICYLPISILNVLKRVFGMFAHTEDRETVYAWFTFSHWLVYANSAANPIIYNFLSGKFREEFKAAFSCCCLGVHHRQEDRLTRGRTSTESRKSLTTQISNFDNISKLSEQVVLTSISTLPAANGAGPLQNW
Method: In order to obtain cell clones that stably express human orexin type 2 receptor, human orexin type 2 (residues 1-444, NCBI Reference Sequence: AK314279) was constructed in a pcDNA3.1 (+) vector (Invitrogen) to express in mammalian cells. This plasmid DNA was transfected into CHO-K1 cells by electroporation, and stable clones were obtained by limiting dilution using resistance to G418 as a selection marker.
CHO cells in which human OX2 receptor was forcibly expressed were seeded at 5,000 cells/well into a 384-well black transparent bottom plate (Costar) in 25 ul complete media, and were then incubated at 37° C., 5% CO2 for 1 day. The next day, 25 ul of 2× calcium 5 dye (Molecular Devices) in assay buffer (HBSS (Thermo Fisher Scientific), 20 mM HEPES (Thermo Fisher Scientific), 2.5 mM probenecid). After incubation in a 5% CO2 incubator at 37° C. for 40 minutes, it was incubated at room temperature for another 20 minutes. Add 5 μL/well of the test compound diluted with assay buffer B (HBSS, 20 mM HEPES), using FLIPR Tetra (Molecular Devices) to measure the fluorescence value every 1 second for 1 minute, and then every 2 seconds for 1 minute. It was measured for 1 minute and 40 seconds. The amount of fluorescence value when DMSO is added instead of the test compound is defined as 0%, and the amount of fluorescence value when orexin A (human) (Peptide Institute) with a final concentration of 10 nM is added is defined as 100%. The activity (%) of the test compound was calculated.

[2] = THF
human OX2 receptor [3] = target: T1, human OX2 receptor; test: Measurement of orexin type 2 receptor agonist activity (Experimental Example 2; Fluo-4 AM calcium fluorescence, FDSS μCELL); assay type: cell-based; conditions: compound at 3 μM; CHO cells expressing human OX2 receptor; DMSO = 0%, 10 nM orexin A (human) = 100%
Method in brief: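 Agonism was tested in CHO-K1 cells stably expressing human OX2 receptor (residues 1-444), loaded with Fluo-4 AM plus probenecid. Calcium fluorescence was recorded for 1 min 40 s after compound addition. Activity (%) was scaled between DMSO (0%) and 10 nM orexin A (100%) and reported at 3 μM compound.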

OX2R agonist activity (1 μM, %) (human OX2 receptor [1]) [%] | OX2R agonist activity (3 μM, %) (human OX2 receptor [3]) [%] | SMILES | also measured
106 |  | CCS(=O)(=O)N[C@@H]1[C@@H]2Cc3cccc(c3F)[C@@H](C)c3nc(ccc3C)CNC(=O)N2CC1(F)F (single isomer, unassigned) [Example 105, N-[(9R,15aS,16R)-17,17,20-trifluoro-7,9-dimethyl-1-oxo-2,3,15a,16,17,18-hexahydro-1H,9H,15H-4,8-(azeno)-10,14-(metheno)pyrrolo[1,2-c][1,3]diazacycloheptadecin-16-yl]ethanesulfonamide or N-[(9S,15aS,16R)-17,17,20-trifluoro-7,9-dimethyl-1-oxo-2,3,15a,16,17,18-hexahydro-1H,9H,15H-4,8-(azeno)-10,14-(metheno)pyrrolo[1,2-c][1,3]diazacycloheptadecin-16-yl]ethanesulfonamide] | 
90 |  | CCS(=O)(=O)N[C@@H]1[C@@H]2Cc3cccc(c3F)[C@H](C)c3nc(ccc3C)CNC(=O)N2CC1(F)F (single isomer, unassigned) [Example 106] | 
 | 100 | O=C1NCc2ccc(Cl)c(n2)Oc2cccc(c2F)C[C@H]2[C@@H](NS(=O)(=O)C3CC3)C(F)(F)CN12 [Example 22, N-[(15aS,16R)-7-chloro-17,17,20-trifluoro-1-oxo-2,3,15a,16,17,18-hexahydro-1H,15H-4,8-(azeno)-14,10-(metheno)pyrrolo[1,2-j][1,8,10]oxadiazacyclo-heptadecin-16-yl]cyclopropanesulfonamide] | ring closure, yield of all isomers ([2]; from NCc1ccc(Cl)c(Oc2cccc(C[C@@H]3NCC(F)(F)[C@@H]3NS(=O)(=O)C3CC3)c2F)n1, other bond, di(N-succinimidyl) carbonate, 1.85 mM, 25.0 °C, 0.08 h): 49.4%
 | 102 | Cc1ccc2nc1Oc1cccc(c1)C[C@H]1[C@@H](NS(C)(=O)=O)CCN1C(=O)CO2 [Example 33, N-[(15aS,16S)-7-methyl-1-oxo-1,2,15a,16,17,18-hexahydro-15H-4,8-(azeno)-10,14-(metheno)pyrrolo[1,2-d][1,12,4]dioxazacyclo-heptadecin-16-yl]methanesulfonamide] | ring closure, yield of all isomers ([2]; from Cc1ccc(OCC(=O)O)nc1Oc1cccc(C[C@@H]2NCC[C@@H]2NS(C)(=O)=O)c1, amide bond, PyBOP, 0.92 mM, 25.0 °C, 12.0 h): 3.4%
 | 104 | Cc1cc(F)c2nc1Oc1cccc(c1F)C[C@H]1[C@@H](NS(C)(=O)=O)C(F)(F)CN1C(=O)NC2 [Example 36, N-[(15aS,16R)-5,17,17,20-tetrafluoro-7-methyl-1-oxo-2,3,15a,16,17,18-hexahydro-1H,15H-4,8-(azeno)-14,10-(metheno)pyrrolo[1,2-j][1,8,10]oxadiazacyclo-heptadecin-16-yl]methanesulfonamide] | ring closure, yield of all isomers ([2]; from Cc1cc(F)c(CN)nc1Oc1cccc(C[C@@H]2NCC(F)(F)[C@@H]2NS(C)(=O)=O)c1F, other bond, di(N-succinimidyl) carbonate, 2.95 mM, 60.0 °C, 1.5 h, 2 steps): 38.2%
 | 103 | Cc1ccc2nc1Oc1cccc(c1F)C[C@H]1[C@@H](NS(C)(=O)=O)C(F)(F)CN1C(=O)NC2C (stereo partly drawn) [Example 51, N-[(15aS,16R)-17,17,20-trifluoro-3,7-dimethyl-1-oxo-2,3,15a,16,17,18-hexahydro-1H,15H-4,8-(azeno)-14,10-(metheno)pyrrolo[1,2-j][1,8,10]oxadiazacyclo-heptadecin-16-yl]methanesulfonamide (optical isomer)] | ring closure, yield of all isomers ([2]; from Cc1ccc(C(C)N)nc1Oc1cccc(C[C@@H]2NCC(F)(F)[C@@H]2NS(C)(=O)=O)c1F, other bond, di(N-succinimidyl) carbonate, 1.23 mM, 60.0 °C): 7.7%
 | 87 | Cc1ccc2nc1COc1cccc(c1F)C[C@H]1[C@@H](NS(C)(=O)=O)C(F)(F)CN1C(=O)NC2 [Example 54, N-[(16aS,17R)-18,18,21-trifluoro-7-methyl-1-oxo-2,3,16a,17,18,19-hexahydro-1H,9H,16H-4,8-(azeno)-11,15-(metheno)pyrrolo[2,1-h][1,9,11]oxadiazacyclo-octadecin-17-yl]methanesulfonamide] | ring closure, yield of all isomers ([2]; from Cc1ccc(CNC(=O)OC(C)(C)C)nc1COc1cccc(C[C@H]2[C@@H](NS(C)(=O)=O)C(F)(F)CN2C(=O)OC(C)(C)C)c1F, other bond, di(N-succinimidyl) carbonate / N-methylmorpholine, DIPEA, 2.78 mM, 60.0 °C, 22.0 h, 2 steps): 14.4%
 | 100 | CCS(=O)(=O)N[C@H]1[C@@H](F)CN2C(=O)NCc3ccc(C)c(n3)Cc3cccc(c3F)C[C@@H]12 [Example 56, N-[(15aS,16R,17S)-17,20-difluoro-7-methyl-1-oxo-2,3,15a,16,17,18-hexahydro-1H,9H,15H-8,4-(azeno)-10,14-(metheno)pyrrolo[1,2-c][1,3]diazacycloheptadecin-16-yl]ethanesulfonamide] | ring closure, yield of all isomers ([2]; from CCS(=O)(=O)N[C@@H]1[C@H](Cc2cccc(Cc3nc(CN)ccc3C)c2F)NC[C@@H]1F, other bond, di(N-succinimidyl) carbonate / 4-methylmorpholine, DIPEA, 4.1 mM, 25.0 °C, 17.0 h): 3.9%
 | 100 | Cc1ccc2nc1OCc1cccc(c1)C[C@H]1[C@@H](NS(C)(=O)=O)CCN1C(=O)NC2 [Example 68, N-[(16aS,17S)-7-methyl-1-oxo-2,3,16a,17,18,19-hexahydro-1H,10H,16H-4,8-(azeno)-11,15-(metheno)pyrrolo[1,2-j][1,8,10]oxadiazacyclo-octadecin-17-yl]methanesulfonamide] | ring closure, yield of all isomers ([2]; from Cc1ccc(CNC(=O)OC(C)(C)C)nc1OCc1cccc(C[C@H]2[C@@H](N(COCC[Si](C)(C)C)S(C)(=O)=O)CCN2C(=O)OC(C)(C)C)c1, other bond, di(N-succinimidyl) carbonate / N-methylmorpholine, DIPEA, 7.5 mM, 25.0 °C, 17.0 h, 2 steps): 3.7%
65 |  | CCS(=O)(=O)N[C@@H]1[C@@H]2Cc3c(C)ccc(c3F)Oc3nc(ccc3C)CNC(=O)N2CC1(F)F [Example 98, N-[(15aS,16R)-17,17,20-trifluoro-7,13-dimethyl-1-oxo-2,3,15a,16,17,18-hexahydro-1H,15H-4,8-(azeno)-14,10-(metheno)pyrrolo[1,2-j][1,8,10]oxadiazacyclo-heptadecin-16-yl]ethanesulfonamide] | 
108 |  | CCS(=O)(=O)N[C@@H]1[C@@H]2Cc3ccc(C)c(c3F)Oc3nc(ccc3C)CNC(=O)N2CC1(F)F [Example 101, N-[(15aS,16R)-17,17,20-trifluoro-7,11-dimethyl-1-oxo-2,3,15a,16,17,18-hexahydro-1H,15H-4,8-(azeno)-10,14-(metheno)pyrrolo[1,2-j][1,8,10]oxadiazacyclohept-adecin-16-yl]ethanesulfonamide] | 
94 |  | CCS(=O)(=O)N[C@@H]1[C@@H]2Cc3cccc(c3F)Cc3nc(ccc3C)OCC(=O)N2CC1(F)F [Example 102, N-[(15aS,16R)-17,17,20-trifluoro-7-methyl-1-oxo-1,2,15a,16,17,18-hexahydro-9H,15H-4,8-(azeno)-10,14-(metheno)pyrrolo[1,2-d][1,4]oxazacycloheptadecin-16-yl]ethanesulfonamide] | 
104 |  | CCS(=O)(=O)N[C@@H]1[C@@H]2Cc3cccc(c3F)Cc3cc(ccc3C)CNC(=O)N2CC1(F)F [Example 103, N-[(15aS,16R)-17,17,20-trifluoro-7-methyl-1-oxo-2,3,15a,16,17,18-hexahydro-1H,9H,15H-4,8:10,14-di(metheno)pyrrolo[1,2-c][1,3]diazacycloheptadecin-16-yl]ethanesulfonamide] | 
109 |  | CCS(=O)(=O)N[C@@H]1[C@@H]2Cc3cccc(c3F)Cc3nc(ccc3C)CNC(=O)N2CC1(F)F [Example 104, N-[(15aS,16R)-17,17,20-trifluoro-7-methyl-1-oxo-2,3,15a,16,17,18-hexahydro-1H,9H,15H-4,8-(azeno)-10,14-(metheno)pyrrolo[1,2-c][1,3]diazacycloheptadecin-16-yl]ethanesulfonamide hydrochloride] | 
